Data from PubChem BioAssay (NCI).
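Five concentrations, 48 hours, 96-well plates. GI50 = concentration required for 50% inhibition of growth. Definition used: TGI = concentration required for complete inhibition of growth.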

How the values were obtained:
Assay in all cases: DTP human tumour cell line panel, 48 h
COLO 205 colon = system: COLO 205 colon
HL-60(TB) leukemia = system: HL-60(TB) leukemia
HOP-62 NSCLC = system: HOP-62 NSCLC
KM12 colon = system: KM12 colon
MDA-MB-435 = system: MDA-MB-435
MOLT-4 leukemia = system: MOLT-4 leukemia
SK-OV-3 ovarian = system: SK-OV-3 ovarian
SN12C renal = system: SN12C renal
SR leukemia = system: SR leukemia
SW-620 colon = system: SW-620 colon

Compound | GI50 (COLO 205 colon) [µM] | TGI (COLO 205 colon) [µM] | GI50 (HL-60(TB) leukemia) [µM] | TGI (HL-60(TB) leukemia) [µM] | GI50 (HOP-62 NSCLC) [µM] | TGI (HOP-62 NSCLC) [µM] | GI50 (KM12 colon) [µM] | TGI (KM12 colon) [µM] | GI50 (MDA-MB-435) [µM] | TGI (MDA-MB-435) [µM] | GI50 (MOLT-4 leukemia) [µM] | TGI (MOLT-4 leukemia) [µM] | GI50 (SK-OV-3 ovarian) [µM] | TGI (SK-OV-3 ovarian) [µM] | GI50 (SN12C renal) [µM] | TGI (SN12C renal) [µM] | GI50 (SR leukemia) [µM] | TGI (SR leukemia) [µM] | GI50 (SW-620 colon) [µM] | TGI (SW-620 colon) [µM]
CCCCCCCCCCCCCCCC1=NC(C)(C)CN1C(C)C | 1.5 | 2.83 | 0.91 | 2.4 | 1.63 | 2.98 | 1.33 | 2.6 | 1.44 | 2.93 | 1.16 | 2.73 | 1.85 | 3.57 | 1.38 | 2.89 | 0.254 | 1.36 | 1.52 | 2.85
Cc1c([N+](=O)[O-])oc2ccc3ccccc3c12 | – | > 100 | – | > 100 | – | > 100 | – | > 100 | – | > 100 | – | > 100 | – | > 100 | – | > 100 | – | > 100 | – | > 100
Cc1cc(I)cc(CN(C)CCCN2CCN(C)CC2)c1O | 19.3 | 42 | 27.1 | > 57.9 | 17 | 36.3 | 35.6 | > 100 | 14.4 | 31.4 | 21.7 | > 63.8 | 65.7 | > 100 | > 94.8 | > 100 | 20.1 | > 55.1 | 24.2 | > 67.7
O=C(O)/C(=C\c1ccncc1)c1cccc2ccccc12 | – | > 100 | – | > 100 | – | > 100 | – | > 100 | – | > 100 | – | > 100 | – | > 100 | – | > 100 | – | > 100 | – | > 100
O=C(CCc1ccc(O)cc1)N/N=C/c1cc(Br)ccc1O | 14 | > 100 | 2.5 | 9.66 | 6.76 | 57.6 | 3.36 | 31.5 | 6.31 | > 100 | 2.41 | 11.2 | 6.35 | > 100 | 4.76 | 73.6 | 2.52 | 9.66 | 3.83 | > 100
CC1(C)C(=O)/C(=C\c2cccnc2)C[C@]2(C)[C@H]3CC[C@@H]4[C@@H](C(=O)/C=C/c5ccncc5)CC[C@@]4(C)[C@]3(C)CC[C@@H]12 | 1.88 | 3.87 | 1.78 | 6.35 | 1.9 | 3.94 | 1.72 | 3.56 | 1.98 | 4.77 | 2.78 | 10.4 | 4.86 | 18.9 | 2.47 | 7.85 | 1.68 | 9.81 | 1.81 | 4.59
Cc1ccc([C@]2(C)CC[C@H](C)/C2=C\Br)c(O)c1 | 2.49 | 6.14 | 3.47 | 12.6 | 4.22 | 15.7 | 3.55 | 13.7 | 1.86 | 4.82 | 4.17 | 16.8 | 2.45 | 7.03 | 4.05 | 15.1 | 2.87 | 11.5 | 3.98 | 16.2
Cc1cc(Nc2cc(N)ncn2)c(=O)n2c1C(=O)NC21CCCCC1 | > 100 | > 100 | > 100 | > 100 | 31.2 | > 100 | > 100 | > 100 | > 100 | > 100 | > 100 | > 100 | 62 | > 100 | > 100 | > 100 | > 100 | > 100 | > 100 | > 100
